Laboratory results reported in patent US5880258A (dated 1999).
“Also recorded” adds a separate entry of the source. *1 amine or outer side, *2 acyl side, *3 side chain or, on linkers, in order; H or OH if unused. Where a SMILES comes first, the peptide text is derived from it. Where no end group is shown, it is not given here. [ ]: non-standard residue; d: D form. sY = N[C@@H](Cc1ccc(OS(=O)(=O)O)cc1)C(=O)O; Suc = O=C(CCC(=O)[*:2])[*:1]

Legend:
[1] = tested on: V8 protease (product of Sigma); test: V8 protease in 0.1M sodium-phoshate buffer (pH7.0); conditions: 37° C., up to 1 hour
[2] = tested on: carboxypeptidase Y (product of Boehringer Mannheim); test: carboxypeptidase Y in 0.1M sodium-phoshate buffer (pH7.0); conditions: 37° C., up to 30 min.
α-chymotrypsin = α-chymotrypsin in 0.1M sodium-phoshate buffer (pH7.0); conditions: 37° C., up to 24 hours
thrombin [3] = molecular target: T1, thrombin (Homo sapiens, UniProt P00734); test: Inhibitory action against thrombin induced death; type: in vivo, mice; conditions: score 0 normal, 1 loss of roll over reflection, 2 death within 20 minutes
Description: To male mice (20-25 g), in non-anaesthesia, thrombin (15 NIH units/10 g) was administered intravenously, and the anti-thrombin activity of the tested compound was evaluated by observing the disappearance of roll over reflection and death as indexes. All the tested compounds were dissolved in saline and 0.05 ml/10 g were administered intravenously 5 min prior to the thrombin injection.

[4] = Prolongation of bleeding time (tail vein puncture wound); type: in vivo; conditions: wound 5 minutes after administration, male mice
Description: Samples were injected into male mice (20-25 g) via their tail vein under anaesthesia using pentobarbital (40 mg/kg i.p.). A puncture wound was made by inserting a 21G needle (outer diameter 0.85 mm) into the other side of the tail vein 5 minutes after administration of test compounds, and the bleeding time of the wound was measured.
A filter paper was put on the wound with changes every 15 seconds. Bleeding time is defined as the time required until no red spot is observed on the filter paper.

thrombin [5] = molecular target: T1, thrombin; test: anti-thrombin activity; clotting assay (coagulation time with fibrinogen as substrate); type: biochemical; design: 100 μl of human-thrombin prepared at 10 NIH units/ml in aforesaid buffer
Description: Measurement of anti-thrombin activity was done by looking at anti-coagulant activity as an index using fibrinogen as the substrate. That is, the compounds were dossolved in 200 μl of 0.1 mM Tris-HCl buffer (pH7.5) containing 0.1% polyethyleneglycol-6000, 100 μl of human-thrombin prepared at 10 NIH units/ml in aforesaid buffer, were added 200 μl of human-fibrinogen (Sigma) prepared at 6 mg/ml in aforesaid tris-hydrochloride buffer were added, and the coagulation time of the reaction mixtures were measured. For measuring of coagulation times, coagulation time analyzer (Amelung KC10A) was used. Obtained values were converted into units by using a previously prepared thrombin standard curve. Graphs were prepared by plotting the converted values on the vertical axis, and the concentrations of the compounds on the horizontal axis. In the graphs, the thrombin unit was defined as 100 at a compound concentration of 0. The concentration of compounds corresponding to 50 units were defined as 50% inhibitory concentrations of compounds.

In the case of “Gly--Asp--Phe--Glu--Glu--Ile--Pro--Glu--Tyr--Tyr(SO3 H)--Leu--Gln”, the cleaved bond [1] is reported as “Glu-Tyr”, the cleaved bond [2] is reported as “Leu-Gln; also recorded: Tyr(SO3 H)-Leu” and the not cleaved [2] is reported as “no Tyr was released (30 min.)”.

For GDFEEIPYYYLQ, the cleaved bond (α-chymotrypsin) was “Tyr-Tyr”.

For `CC[C@H](C)[C@H](NC(=O)[C@@H]1CCCN1C(=O)[C@H](CCC(=O)O)NC(=O)[C@H](Cc1ccccc1)NC(=O)[C@H](CC(=O)O)NC(=O)CNC(=O)CCC(=O)O)C(=O)N1CCC[C@H]1C(=O)N[C@@H](CCC(=O)O)C(=O)N[C@@H](Cc1ccc(OS(=O)(=O)O)cc1)C(=O)N[C@@H](Cc1ccc(OS(=O)(=O)O)cc1)C(=O)N[C@@H](CC(C)C)C(=O)N[C@@H](CCC(N)=O)C(=O)O` [Sulfated form of (C), Suc--Gly--Asp--Phe--Glu--Pro--Ile--Pro--Glu--Tyr(SO3 H)--Tyr(SO3 H)--Leu--Gln--OH] (Suc-GDFEPIPE[sY][sY]LQ-OH), the Score (thrombin [3]; 20 mg/kg i.v. 5 min before thrombin 15 NIH units/10 g) was 1.2, the Score (thrombin [3]; 50 mg/kg i.v. 5 min before thrombin 15 NIH units/10 g) was 0.8 and the Score (thrombin [3]; 100 mg/kg i.v. 5 min before thrombin 15 NIH units/10 g) was 0.6. For the same compound, the Bleeding time ([4]; 10 mg/kg via tail vein) was 277.5 ± 31.5 s, the Bleeding time ([4]; 20 mg/kg via tail vein) was 366.0 ± 23.0 s and the Bleeding time ([4]; 50 mg/kg via tail vein) was 432.0 ± 33.3 s. For the same compound, the Potency (thrombin [5]; calculated using the definition that HV-1 (54-65) potency is 1) was 88.94 and the IC50 (thrombin [5]; concentration corresponding to 50 thrombin units, human-thrombin 10 NIH units/ml, human-fibrinogen 6 mg/ml, read-out: 50% Inhibition Concentration (converted)) was 42.9 nM.
